The values that follow come from PMC8903829 (eLife, 2022).

As a reminder, the EC50 is the concentration at which the effect is half-maximal.

Where two headings read alike, the source gives them in different places.

The test system of one series is wild-type mice (CF-1). Briefly: DC-Maximal electroshock seizure assay (DC-MES). The settings on record: for EC50: read-out: brain EC50. It counts as in vivo, mouse. How it is done:
(§1) Phenytoin was formulated in physiologic saline and was administered intraperitoneally (i.p.) using a 25-gauge needle at a dose volume of 10 mL/kg. All compounds were administered 2 hr prior to electrical seizure induction for all seizure models employed in this study.
(§2) The maximal electroshock seizure (MES) assay has been extensively used in the search for anticonvulsant substances ([Löscher et al., 1991]; [Piredda et al., 1985]; [White et al., 1995]). The MES assay is sensitive to nonselective NaV inhibitors. It is considered a model for generalized tonic-clonic (GTC) seizures and provides an assessment of seizure spread. Briefly, an electroshock of direct current (DC) was delivered by corneal electrodes (Electro Convulsive Therapy Unit 57,800 from Ugo Basile). The parameters of stimulation were different between mice and rats. In CF1 mice aged 9–12 weeks, a direct current of 50 mA (60 Hz) was delivered for 0.2 s (pulse width of 0.5ms), whereas in Sprague Dawley (SD) rats aged 5–6 weeks, a direct current of 150 mA (60 Hz) was delivered for 0.3 s (pulse width of 0.5ms). Immediately prior to the electroshock, the animals’ eyes were anesthetized with a drop of Alcaine (0.5% proparacaine hydrochloride).
(§3) An animal was considered protected in the assay in the absence of a GTC with hindlimb extension and is then scored ‘0’. An animal displaying GTC with hindlimb extension was considered not protected and is then scored ‘1’. The experimenter scoring the seizure behavior was blinded to the treatment.
For orientation: The maximal electroshock test induces tonic seizures with an electrical stimulus.

Series [1] deals with wild-type Sprague Dawley rats. Put plainly: DC-Maximal electroshock seizure assay (DC-MES). Type of series: in vivo, rat. How it is done:
as §1, §2, §3

Series [2] is described as follows: Bioanalytical assessment of plasma and brain concentrations after mouse DC-MES assay. It counts as in vivo. The settings on record: mouse, WT mouse DC-MES acute. How it is done:
Approximately 0.5 mL of blood was collected from each mouse at the end of the assay via cardiac puncture under deep anesthesia. The blood samples were collected in a syringe and transferred to tubes containing EDTA. Blood was stored at 4 °C until centrifuged within 30 min of collection. Plasma was harvested and placed on dry ice and stored in a freezer set to maintain a temperature of –70°C to –80°C until analysis. Brains were harvested immediately after blood collection and placed on dry ice prior to storage in a freezer set to maintain a temperature of –70°C to –80°C until analysis.
Extraction of plasma samples was carried out by protein precipitation using acetonitrile. Plasma samples (50 µL) were mixed with 50 µL of internal standard (IS) solution in water followed by addition of 10 µL of concentrated ortho-phosphoric acid and 200 µL of acetonitrile. Samples were vortexed for 30 seconds, centrifuged at 13,000 rpm for 20 min, decanted in to a 96-well plate, and further centrifuged at 4000 rpm for 20 min. The samples were analyzed by UHPLC-ESI-MS/MS as described below.
Prior to extraction, pre-weighed whole brains were homogenized in 1:1 acetonitrile/water (v/v) (4 mL per mouse brain) using an IKA T18 ULTRA-TURRAX Homogenizer at the setting of 4 for approximately 2 min. The homogenate was centrifuged at 13,000 rpm for 20 min and 50 µL of the supernatant were treated exactly as described above for plasma samples. […]
Samples were analyzed by UHPLC-ESI MS/MS using a TQ-5500 Sciex triple quadrupole mass spectrometer equipped with a Shimadzu Nexera UHPLC pump and auto-sampler system using an ACE C18 PFP, 2.50 × 50 mm, 1.7 µm particle size column and gradient elution consisting of solvent A (0.1% formic acid in water) and solvent B (0.1% formic acid in acetonitrile) starting at 20% B from 0 min to 0.4 min and then increased to 100% B from 0.4 min to 0.6 min. At 2.0 min, the mobile phase composition was switched back to […] for 1 min. The flow rate used throughout the experiment was […]. […] The UHPLC-ESI MS/MS system was controlled by Analyst 1.6.
Sample concentrations were determined using a linear calibration function, weighted 1 /X, generated by the regression of analyte to IS peak area ratios in the standard samples to their respective concentrations. Acceptance criteria for the analytical run required that the back calculated values of the standards and the QC samples fell within ±20% of their nominal values, except for the lowest standard or lower limit of quantitation (LLOQ), for which the acceptance criterion was ±25%. At least 6 out of 12 standard points had to show back-calculated values within ±20% of their nominal concentrations for the calibration to be accepted. At least three QC samples, one at each level, had to show back-calculated values within ±20% of their nominal concentrations for the whole sample batch to be valid.

Consider `NC(=O)N1c2ccccc2C=Cc2ccccc21` [carbamazepine, Carbamazepine, reference compound], for which the “WT mouse DC-MES acute Fraction of animals seizing” value in the series with wild-type mice (CF-1) (Study17131, 10 mg/kg) came to 0.7143; in the series on wild-type mice (CF-1) (Study17131, 30 mg/kg) it was 0.4286; in the series with wild-type mice (CF-1) (Study17131, 100 mg/kg), 0.1429; in the series with wild-type mice (CF-1) (Study17134, 10 mg/kg), 0.8571; with wild-type mice (CF-1) (Study17134, 30 mg/kg) it was 0.4286. In addition, the EC50 with wild-type mice (CF-1) (WT mouse DC-MES, 2 hr post dose (oral; phenytoin i.p.)) turned out to be 44 µM; in series [1] (WT rat DC-MES (oral; phenytoin i.p.), read-out: plasma EC50) it was 30 µM; in series [1] (WT rat DC-MES, 2 hr post dose (oral; phenytoin i.p.), read-out: brain EC50) it was 36 µM. Moreover, the “Rat DC-MES Fraction of animals seizing” value in series [1] (Study18058, 10 mg/kg) was 0.857; in series [1] (Study18058, 20 mg/kg), 0.714; in series [1] (Study18068, 30 mg/kg), 0.571; in series [1] (Study18068, 100 mg/kg) it was 0.428; in series [1] (Study18085, 300 mg/kg), 0.285. Moreover, the concentration at 2 h in series [2] (brain, oral, 10 mg/kg, Study17131, 10 mg/kg, read-out: Mean [Brain]) was 18.3 µM; in series [2] (brain, oral, 10 mg/kg, Study17134, 10 mg/kg, read-out: Mean [Brain]), 17.4 µM; in series [2] (brain, oral, 30 mg/kg, Study17131, 30 mg/kg, read-out: Mean [Brain]) it was 43.1 µM; in series [2] (brain, oral, 30 mg/kg, Study17134, 30 mg/kg, read-out: Mean [Brain]), 46 µM; in series [2] (brain, oral, 100 mg/kg, Study17131, 100 mg/kg, read-out: Mean [Brain]), 115 µM; in series [2] (plasma, oral, 10 mg/kg, Study17131, 10 mg/kg, read-out: Mean [Palsma]), 13.6 µM. For the same compound, the concentration at 2 h in series [2] (plasma, oral, 10 mg/kg, Study17134, 10 mg/kg, read-out: Mean [Palsma]) was 16.6 µM; in series [2] (plasma, oral, 30 mg/kg, Study17131, 30 mg/kg, read-out: Mean [Palsma]), 34.5 µM; in series [2] (plasma, oral, 30 mg/kg, Study17134, 30 mg/kg, read-out: Mean [Palsma]), 52.5 µM; in series [2] (plasma, oral, 100 mg/kg, Study17131, 100 mg/kg, read-out: Mean [Palsma]) it was 91.3 µM.
As to `COC[C@@H](NC(C)=O)C(=O)NCc1ccccc1` [lacosamide, Lacosamide, reference compound], the EC50 is 7.1 µM in the series with wild-type mice (CF-1) (Mus musculus, 2 h); 4.3 µM in series [1] (Rattus norvegicus, 2 h, read-out: brain EC50); 24.4 µM in series [1] (Rattus norvegicus, read-out: plasma EC50). Besides, the “WT mouse DC-MES acute Fraction of animals seizing” value was 0.625 in the series on wild-type mice (CF-1) (Study18003, 3 mg/kg); 0.375 with wild-type mice (CF-1) (Study18003, 10 mg/kg); 0.125 in the series on wild-type mice (CF-1) (Study18003, 30 mg/kg); 0.6667 in the series with wild-type mice (CF-1) (Study18053, 3 mg/kg); 0.75 with wild-type mice (CF-1) (Study18063, 3 mg/kg). Also, the “Rat DC-MES Fraction of animals seizing” value in series [1] (Study18060, 2 mg/kg) worked out at 1; in series [1] (Study18060, 6 mg/kg), 0.8571; in series [1] (Study18060, 12 mg/kg), 0.5714; in series [1] (Study18068, 100 mg/kg), 0. Besides, the concentration at 2 h worked out at 3.47 µM in series [2] (in vivo, 3 mg/kg, Study18003, 3 mg/kg, read-out: Mean [Brain]); 3.25 µM in series [2] (in vivo, 3 mg/kg, Study18003, 3 mg/kg, read-out: Mean [Palsma]); 1.95 µM in series [2] (in vivo, 3 mg/kg, Study18053, 3 mg/kg, read-out: Mean [Brain]); 6.21 µM in series [2] (in vivo, 3 mg/kg, Study18053, 3 mg/kg, read-out: Mean [Palsma]); 1.26 µM in series [2] (in vivo, 3 mg/kg, Study18063, 3 mg/kg, read-out: Mean [Brain]); 4.46 µM in series [2] (in vivo, 3 mg/kg, Study18063, 3 mg/kg, read-out: Mean [Palsma]). For the same compound, the concentration at 2 h is 11.5 µM in series [2] (in vivo, 10 mg/kg, Study18003, 10 mg/kg, read-out: Mean [Brain]); 9.52 µM in series [2] (in vivo, 10 mg/kg, Study18003, 10 mg/kg, read-out: Mean [Palsma]); 34.3 µM in series [2] (in vivo, 30 mg/kg, Study18003, 30 mg/kg, read-out: Mean [Brain]); 26.7 µM in series [2] (in vivo, 30 mg/kg, Study18003, 30 mg/kg, read-out: Mean [Palsma]).
